The values below come from patent US10000452B1, “Quinolone-based compounds, formulations, and uses thereof” (University of South Florida, priority 2016, dated 2018).

pEC50: −log10 of the molar value. ≈ marks a conversion by molar mass, not a printed value. Read-outs that look alike come from different tables or passages of the source.

Data set [1] relates to P. berghei sporozoites expressing luciferase. Nature of the data set: in vitro liver stage activity, luciferase sporozoites infecting HEPG2 hepatoma cells. The note with it: HEPG2 cells. The class given is cell-based.
For another data set, the system named is Pb-infected mice. In words: in vivo efficacy scouting assay against blood stages. The note with it: for % inhibition on day 6 PE: Example 2: two mice, single 50 mg/kg oral dose in PEG400 on day 1 PE; for % Inhibition Day 6 PI: vs untreated animals. Set-up: species or system P. berghei; mice. The procedure:
The screening involved a single oral 50 mg/kg dose 1 day post infection (PI) and an assessment of parasitemia on days 3 PI and 6 PI (Table 6).
The screening was performed by treating two infected mice with a single 50 mg/kg oral dose of test compound suspended in PEG400 on day 1 postexposure (PE) followed by assessing parasitemia on days 3 and 6 PE.

The subject of the next data set is J774 mammalian cells. In words: cytotoxicity to J774 cells. Format: cell-based. The conditions noted are these: Mus musculus; for EC50: J774, read-out: EC50 J774 (μM). How it is done:
This allowed a simplified method for comparing the different assays being simultaneously run. Additionally, each compound was also tested for cytotoxicity using mammalian J774 cell lines in a 96-well plate format.^12-14, 16

The subject of data set [2] is malarial strain TM90-C2B (mefloquine, chloroquine, atovaquone, and pyrimethamine-resistant). In words: microbe, parasite or virus in culture. The note with it: for EC50: Plasmodium falciparum, TM90, read-out: EC50 TM90-C2B (nM); for RI: RI = EC50 TM90-C2B/EC50 W2. Format: cell-based, P. falciparum. From the text: Ideally, the RI of a compound should lie between 0.3 and 3.0 in order to avoid rapidly inducing resistance in the parasite. […]

For data set [3], the system named is malarial strain W2 (pyrimethamine and chloroquine-resistant). Nature of the data set: in vitro antimalarial activity against multidrug resistant strain W2. The class given is cell-based, P. falciparum. The note with it: for EC50: Plasmodium falciparum, read-out: EC50 W2 (nM).
Data set [4] can be described thus: lipophilicity log D at pH 7.4. The class given is physicochemical. The note with it: octanol/water. From the text: (§1) Furthermore, to profile the properties of the piperazinyl-4(1H)-quinolones, and to identify potential limitations, aqueous solubility and lipophilicity log D were experimentally determined via LC/MS-based assays as described by the Manetsch laboratory previously^8,10,31,32 (Tables 9-12). Encouragingly, the piperazinyl-4(1H)-quinolones were much more soluble than the previously described phenoxyethoxy-4(1H)-quinolone analogues.^19 As expected, the solubility of all compounds was affected by pH, with better solubility under more acidic conditions.
(§2) In parallel to testing the compounds for in vitro antimalarial activity, a limited structure-property relationship (SPR) study focusing on log D and aqueous solubility was conducted to assess potential physiochemical liabilities (FIG. 22). […] For these reasons, physicochemical properties were not strongly considered as selection criteria for in vivo efficacy studies.

The nature of data set [5]: aqueous solubility (LC/MS- or HPLC-based assay). Format: physicochemical.
Excerpt: as §1, §2

The mark [6] stands for this setting: aqueous medium, pH 2, simulated gastric fluid, pH 2.0, read-out: Solubility pH 2.0.
Setting [7] is: aqueous medium, pH 6.5, aqueous buffer, pH 6.5, read-out: Solubility pH 6.5.
Where [8] appears, read: aqueous solution (buffer not named), pH 2, simulated gastric fluid, pH 2.0, read-out: Solubility pH 2.0.
The mark [9] stands for this setting: aqueous solution (buffer not named), pH 6.5, aqueous buffer, pH 6.5, read-out: Solubility pH 6.5.
The mark [10] stands for this setting: single oral 50 mg/kg dose 1 day PI.

The term pEC50 denotes −log10 of the EC50, conventionally taken in molar units. The EC50 is the midpoint of the concentration-response curve. For `CCCCc1cc2c(=O)c(CC)c[nH]c2cc1OCCOc1ccccc1` [Compound 6ae, 6-Butyl-3-ethyl-7-(2-phenoxyethoxy)quinolin-4(1H)-one], the pEC50 in data set [1] (Plasmodium berghei) is 8.58; in the data set with J774 mammalian cells (J774, read-out: EC50 J774), 6.44. In the data set with Pb-infected mice, the “% inhibition on day 6 PE” value is on record as “lack of significant parasitemia reduction”. Also, the values for the EC50 in data set [2] and in data set [3] were 1.92 nM and 0.44 nM, respectively. In data set [2], this compound had an RI of 4.36.

In data set [1] (Plasmodium berghei), `COC(=O)c1c[nH]c2cc(OCCCc3ccccc3)ccc2c1=O` [Compound 6j, Methyl 4-Oxo-7-(3-phenylpropoxy)-1,4-dihydroquinoline-3-carboxylate] gave a pEC50 of 8.28. In the data set with Pb-infected mice, the “% inhibition on day 6 PE” value came out at 47.1%. Besides, the EC50 in data set [3] came to 0.711 nM.

Consider `CCCCc1cc2c(=O)c(C(=O)O)c[nH]c2cc1OCCOc1ccccc1` [Compound 7b, 6-Butyl-4-oxo-7-(2-phenoxyethoxy)-1,4-dihydroquinoline-3-carboxylic Acid], for which the pEC50 in data set [1] (Plasmodium berghei) was 9.57. The EC50 in data set [2] was determined as 1110 nM; in data set [3], 64 nM.

As a reminder, the chromatographic logD is lipophilicity estimated from chromatographic retention. A high value points to a more lipophilic compound. A word on the solubility: it is the dissolved amount per volume that the medium holds. In data set [4], `COC(=O)c1c[nH]c2cc(CCN3CCN(c4ccccc4)CC3)ccc2c1=O` [Compound 8ac, Methyl 4-oxo-7-(2-(4-phenylpiperazin-1-yl)ethyl)-1,4-dihydroquinoline-3-carboxylate] displayed a chromatographic logD of 5.11. Further, the EC50 in the data set with J774 mammalian cells was more than 20 µM; in data set [2], 1500 nM; in data set [3], 25.6 nM. In data set [2], this compound came in with an RI of 58.6. For the same compound, the solubility in data set [5] (setting [6]) and in data set [5] (setting [7]) was not below 80 µM throughout.

Take `COC(=O)c1c[nH]c2cc(CCN3CCN(Cc4ccc(OC)cc4)CC3)ccc2c1=O` [Compound 8ae, Methyl 7-(2-(4-(4-methoxybenzyl)piperazin-1-yl)ethyl)-4-oxo-1,4-dihydroquinoline-3-carboxylate]: in data set [4], the chromatographic logD was determined as 1.68. Also, the EC50 in the data set with J774 mammalian cells was more than 20 µM; in data set [3], 11.6 nM. Also, the RI in data set [2] is given as more than 495. Further, the solubility in data set [5] (setting [6]) and in data set [5] (setting [7]) was not below 80 µM in each case.

In the case of `COC(=O)c1c[nH]c2ccc(CN3CCN(c4ccc(F)cc4)CC3)cc2c1=O` [Compound 8ah, Methyl 6-((4-(4-fluorophenyl)piperazin-1-yl)methyl)-4-oxo-1,4-dihydroquinoline-3-carboxylate], the chromatographic logD in data set [4] turned out to be 2.17. Further, the EC50 with J774 mammalian cells is more than 20 µM; in data set [2], 2900 nM; in data set [3] it was 106 nM. In data set [2], this compound yielded an RI of 27.4. For the same compound, the solubility in data set [5] (setting [8]) and in data set [5] (setting [9]) was not below 80 µM in each case.

On to `O=c1c(Cl)c[nH]c2cc(CN3CCN(c4ccc(F)cc4)CC3)ccc12` [Compound 8al, 3-Chloro-7-((4-(4-fluorophenyl)piperazin-1-yl)methyl)quinolin-4(1H)-one], for which the chromatographic logD in data set [4] worked out at 2.57. Also, the “activities in these scout assays” value in the data set with Pb-infected mice (single oral 50 mg/kg dose 1 day PI, result in words) is on record as “excellent activities”. Besides, the “% Inhibition Day 6 PI” value with Pb-infected mice (setting [10]) is given as 71.9%. Moreover, the EC50 with J774 mammalian cells is more than 20 µM; in data set [2], 2290 nM; in data set [3], 1060 nM. Also, the solubility in data set [5] (setting [8]) is not below 80 µM; in data set [5] (setting [9]), 40 to 59.9 µM (≈ 14.9 to 22.3 µg/mL).

Take `Cc1cc(=O)c2ccc(CN3CCN(c4ccc(F)cc4)CC3)cc2[nH]1` [Compound 8am, 7-((4-(4-Fluorophenyl)piperazin-1-yl)methyl)-2-methylquinolin-4(1H)-one]: the chromatographic logD in data set [4] came to 2.44. Moreover, the EC50 in the data set with J774 mammalian cells is more than 20 µM; in data set [2] it was 1450 nM; in data set [3], 1220 nM. Further, the RI in data set [2] stood at 1.19. Further, the solubility in data set [5] (setting [8]) and in data set [5] (setting [9]) was not below 80 µM each time.

As to `COC(=O)c1c[nH]c2cc(N3CCN(c4ccccc4)CC3)c(C)cc2c1=O` [Compound 8c, Methyl 6-methyl-4-oxo-7-(4-phenylpiperazin-1-yl)-1,4-dihydroquinoline-3-carboxylate], the chromatographic logD in data set [4] came out at 2.31. In the data set with Pb-infected mice (setting [10]), the “% Inhibition Day 6 PI” value is recorded as “little to moderate protection”. Also, the results for the EC50 (in the data set on J774 mammalian cells; in data set [2]; in data set [3]) were 16.7 µM, 1110 nM and 45.5 nM, respectively. Further, the solubility was not below 80 µM in data set [5] (setting [6]) and 40 to 59.9 µM (≈ 15.1 to 22.6 µg/mL) in data set [5] (setting [7]).

In data set [4], `COC(=O)c1c[nH]c2cc(N3CCN(c4ccccc4)CC3)c(OC)cc2c1=O` [Compound 8d, Methyl 6-methoxy-4-oxo-7-(4-phenylpiperazin-1-yl)-1,4-dihydroquinoline-3-carboxylate] had a chromatographic logD of 2.64. The “% Inhibition Day 6 PI” value in the data set on Pb-infected mice (setting [10]) was “little to moderate protection”. In addition, the EC50 came to 16.8 µM in the data set with J774 mammalian cells and 37.2 nM in data set [3]. In addition, the solubility in data set [5] (setting [6]) is not below 80 µM; in data set [5] (setting [7]), 1 to 19.9 µM (≈ 0.393 to 7.83 µg/mL).

As for `COC(=O)c1c[nH]c2cc(N3CCN(c4ccc(OC)cc4)CC3)ccc2c1=O` [Compound 8e, Methyl 7-(4-(4-methoxyphenyl)piperazin-1-yl)-4-oxo-1,4-dihydroquinoline-3-carboxylate], the chromatographic logD in data set [4] was found to be 2.44. Besides, the EC50 is more than 20 µM with J774 mammalian cells, 154 nM in data set [2] and 7.76 nM in data set [3]. The RI in data set [2] is listed as 19.8. Besides, the solubility in data set [5] (aqueous solution, pH 2, simulated gastric fluid, pH 2.0, read-out: Solubility pH 2.0) was 40 to 59.9 µM (≈ 15.7 to 23.6 µg/mL); in data set [5] (aqueous solution, pH 6.5, aqueous buffer, pH 6.5, read-out: Solubility pH 6.5), 20 to 39.9 µM (≈ 7.87 to 15.7 µg/mL).

The compound `COC(=O)c1c[nH]c2cc(N3CCN(Cc4ccccc4)CC3)c(OC)cc2c1=O` [Compound 8h, Methyl 7-(4-benzylpiperazin-1-yl)-6-methoxy-4-oxo-1,4-dihydroquinoline-3-carboxylate] yielded a chromatographic logD in data set [4] of 2.03. Also, the EC50 stood at 12.4 µM in the data set with J774 mammalian cells and 63.5 nM in data set [3]. Moreover, the solubility in data set [5] (setting [6]) is 60 to 79.9 µM (≈ 24.4 to 32.6 µg/mL); in data set [5] (setting [7]), 40 to 59.9 µM (≈ 16.3 to 24.4 µg/mL).

`COC(=O)c1c[nH]c2cc(N3CCN(Cc4ccc(OC)cc4)CC3)ccc2c1=O` [Compound 8i, Methyl 7-(4-(4-methoxybenzyl)piperazin-1-yl)-4-oxo-1,4-dihydroquinoline-3-carboxylate]: in data set [4], the chromatographic logD is 2.08. Further, the results for the half-maximal effective concentration (EC50) in data set [2] and in data set [3] were 1340 nM and 19.9 nM, respectively. The same compound had an RI in data set [2] of 67.3. Further, the solubility was not below 80 µM in data set [5] (setting [6]) and 40 to 59.9 µM (≈ 16.3 to 24.4 µg/mL) in data set [5] (setting [7]).

For `COC(=O)c1c[nH]c2cc(CN3CCN(Cc4ccc5c(c4)OCO5)CC3)ccc2c1=O` [Compound 8m, Methyl 7-((4-(benzo[d][1,3]dioxol-5-ylmethyl)piperazin-1-yl)methyl)-4-oxo-1,4-dihydroquinoline-3-carboxylate], the chromatographic logD in data set [4] is 0.87. In addition, the EC50 was more than 20 µM in the data set on J774 mammalian cells, more than 5740 nM in data set [2] and 157 nM in data set [3]. The compound further yielded an RI in data set [2] of more than 36.6. Also, the solubility in data set [5] (setting [6]) and in data set [5] (setting [7]) was not below 80 µM throughout.

Compound `COC(=O)c1c[nH]c2cc(CN3CCN(Cc4ccc(OC)cc4)CC3)c(C)cc2c1=O` [Compound 8s, Methyl 7-((4-(4-methoxybenzyl)piperazin-1-yl)methyl)-6-methyl-4-oxo-1,4-dihydroquinoline-3-carboxylate] came in with a chromatographic logD in data set [4] of 2.03. The “% Inhibition Day 6 PI” value in the data set on Pb-infected mice (setting [10]) was “little to moderate protection”. In addition, the EC50 in the data set with J774 mammalian cells is more than 20 µM; in data set [2], 1020 nM; in data set [3], 2.4 nM. Besides, the RI in data set [2] is reported as 426. The solubility in data set [5] (setting [6]) and in data set [5] (setting [7]) was not below 80 µM each time.

`COC(=O)c1c[nH]c2cc(CN3CCN(Cc4ccc(OC)cc4)CC3)c(OC)cc2c1=O` [Compound 8y, Methyl 6-methoxy-7-((4-(4-methoxybenzyl)piperazin-1-yl)methyl)-4-oxo-1,4-dihydroquinoline-3-carboxylate] showed a pEC50 in data set [1] (Plasmodium berghei) of 7.28. For the same compound, in the data set with Pb-infected mice (setting [10]), the “% Inhibition Day 6 PI” value is “little to moderate protection”. The figures for the EC50 (in the data set with J774 mammalian cells; in data set [2]; in data set [3]) were more than 20 µM, 2750 nM and 9.97 nM, respectively.

Turning to “Methyl 7-(4-benzylpiperazin-1-yl)-4-oxo-1,4-dihydroquinoline-3-carboxylate [Compound 8b]”, the pEC50 is 8.24 in data set [1]; 6.37 in data set [2] (blood stage in vitro, atovaquone-resistant strain TM90-C2B, read-out: EC50 TM90-C2B); 6.48 in data set [3] (blood stage in vitro, strain W2, read-out: EC50 W2). This compound returned an RI in data set [2] of 1.31.
